Source: PMC9080489, “Synthesis and biological evaluation of 2-aryl-benzimidazole derivatives of dehydroabietic acid as novel tubulin polymerization inhibitors” (RSC Advances, 2018)
Read-outs that look alike come from different tables or passages of the source.

Tests used:
[1] = test system: human cervical carcinoma cell line (HeLa); test: MTT cytotoxic assay, HeLa; assay type: cell-based; settings: read-out: IC50 HeLa
Method: (§1) The in vitro antiproliferative activity of DAA derivatives (1–5, 6a–k, 7a–k) were evaluated by MTT assay against human hepatocarcinoma cell line (SMMC-7721), human breast cancer cell line (MDA-MB-231), human cervical carcinoma cell line (HeLa), mouse colon cancer cell line (CT-26) and human normal hepatocyte cell line (QSG-7701). Nocodazole was co-assayed as the positive control and DMEM culture medium containing 0.1% DMSO was used as negative control. The results of the tested compounds expressed as IC50 values (concentration required to inhibit tumor cell proliferation by 50%) were presented in Table 1.
(§2) The human hepatocarcinoma cell line (SMMC-7721), human breast cancer cell line (MDA-MB-231), human cervical carcinoma cell line (HeLa), mouse colon cancer cell line (CT-26) and human normal hepatocyte cells (QSG-7701) used in this study were all obtained from Keygene Biotech., China. These cell lines were maintained in DMEM medium supplemented with 10% heat-inactivated fetal bovine serum in a humidified atmosphere of 5% CO2 at 37 °C.
(§3) The in vitro cytotoxic activities of the benzimidazole derivatives of dehydroabietic acid were evaluated against tested cell lines via the MTT colorimetric method. Briefly, different tumor cells were grown in DMEM medium supplemented with 10% fetal bovine serum, penicillin (100 U mL^−1), and streptomycin (50 μg mL^−1). Cells were harvested at log phase of growth and seeded in 96-well plates (100 μL per well at a density of 2 × 10^5 cells mL^−1). After 24 h incubation at 37 °C and 5% CO2 to allow cell attachment, cultures were exposed to various concentrations of the isolated compounds for 48 h. Finally, MTT solution (2.5 mg mL^−1 in PBS) was added (40 μL per well). Plates were further incubated for 4 h at 37 °C, and the formazan crystals formed were dissolved by adding 150 μL per well of DMSO. Absorption at 570 nm was measured with an ELISA plate reader. The results were expressed as IC50 values with standard deviations, which was defined as the concentration at which 50% survival of cells was discerned. Nocodazole was co-assayed as positive control.

[2] = test system: human hepatocarcinoma cell line (SMMC-7721); test: MTT cytotoxic assay, SMMC-7721; assay type: cell-based; settings: Homo sapiens, SMMC-7721, 48 h, read-out: IC50 SMMC-7721
Method: as §1, §2, §3

[3] = test system: mouse colon cancer cell line (CT-26); test: MTT cytotoxic assay, CT-26; assay type: cell-based; settings: Mus musculus, CT26, 48 h, read-out: IC50 CT-26
Method: as §1, §2, §3

[4] = test system: human breast cancer cell line (MDA-MB-231); test: MTT cytotoxic assay, MDA-MB-231; assay type: cell-based; settings: read-out: IC50 MDA-MB-231
Method: as §1, §2, §3

[5] = test system: human normal hepatocyte cell line (QSG-7701); test: MTT cytotoxic assay, QSG-7701; assay type: cell-based; settings: QSG7701, 48 h exposure
Method: as §1, §2, §3

SMILES | IC50 ([1]; MTT, 48 h exposure) | IC50 ([2]; MTT, 48 h exposure) | IC50 ([3]; MTT, 48 h exposure) | IC50 ([4]; MDA-MB-231, MTT, 48 h exposure) | IC50 ([1]; 48 h) | IC50 [2] | IC50 [3] | IC50 ([4]; MDA-MB-231, 48 h) | melting point | IC50 [5]
CC(C)c1ccc2c(c1)CC[C@H]1[C@](C)(C(=O)O)CCC[C@]21C [Compound 1, Dehydroabietic acid] | > 50 µM | > 50 µM | > 50 µM | > 50 µM |  |  |  |  |  | 
COC(=O)[C@]1(C)CCC[C@]2(C)c3ccc(C(C)C)cc3CCC12 (some centres unmarked) [Compound 2] | > 50 µM | > 50 µM | > 50 µM | > 50 µM |  |  |  |  |  | 
COC(=O)[C@]1(C)CCC[C@]2(C)c3cc(Br)c(C(C)C)cc3CCC12 (some centres unmarked) [Compound 3] | > 50 µM | > 50 µM | > 50 µM | > 50 µM |  |  |  |  |  | 
COC(=O)[C@]1(C)CCC[C@]2(C)c3cc(Br)c([N+](=O)[O-])c([N+](=O)[O-])c3CCC12 (some centres unmarked) [Compound 4, methyl 12-bromo-13,14-dinitro-deisopropyldehydroabietate] |  |  |  |  | > 50 µM | 31.8 ± 3.22 µM | 35.1 ± 3.87 µM | 38.8 ± 2.15 µM |  | 
COC(=O)[C@]1(C)CCC[C@]2(C)c3cc(Br)c(N)c(N)c3CCC12 (some centres unmarked) [Compound 5] | 43.4 ± 2.81 µM | > 50 µM | 38.5 ± 3.79 µM | > 50 µM |  |  |  |  |  | 
COC(=O)[C@]1(C)CCC[C@]2(C)c3cc(Br)c4nc(-c5ccc(C)cc5)[nH]c4c3CCC12 (some centres unmarked) [Compound 6b, Methyl 2′-(p-tolyl)-12-bromo-13,14-imidazolyl-deisopropyl-dehydroabietate] | > 50 µM | > 50 µM | 25.3 ± 4.96 µM | > 50 µM |  |  |  |  | 143 to 145 °C | 
COC(=O)[C@]1(C)CCC[C@]2(C)c3cc(Br)c4nc(-c5ccccc5F)[nH]c4c3CCC12 (some centres unmarked) [Compound 6e, Methyl 2′-(2-fluorophenyl)-12-bromo-13,14-imidazolyl-deisopropyl-dehydroabietate] | > 50 µM | 12.3 ± 2.46 µM | > 50 µM | > 50 µM |  |  |  |  | 138 to 139 °C | 
COC(=O)[C@]1(C)CCC[C@]2(C)c3cc(Br)c4nc(-c5ccc(Cl)cc5)[nH]c4c3CCC12 (some centres unmarked) [Compound 6f, Methyl 2′-(4-chlorophenyl)-12-bromo-13,14-imidazolyl-deisopropyl-dehydroabietate] | > 50 µM | 16.5 ± 1.87 µM | > 50 µM | 33.7 ± 4.7 µM |  |  |  |  | 139 to 141 °C | 
COC(=O)[C@]1(C)CCC[C@]2(C)c3cc(Br)c4nc(-c5ccccc5Cl)[nH]c4c3CCC12 (some centres unmarked) [Compound 6g, Methyl 2′-(2-chlorophenyl)-12-bromo-13,14-imidazolyl-deisopropyl-dehydroabietate] | > 50 µM | 40.8 ± 3.32 µM | > 50 µM | 19.2 ± 0.93 µM |  |  |  |  | 142 to 143 °C | 
COC(=O)[C@]1(C)CCC[C@]2(C)c3cc(Br)c4nc(-c5ccc(Br)cc5)[nH]c4c3CCC12 (some centres unmarked) [Compound 6h, Methyl 2′-(4-bromophenyl)-12-bromo-13,14-imidazolyl-deisopropyl-dehydroabietate] | > 50 µM | 16.6 ± 1.4 µM | > 50 µM | 35.3 ± 1.77 µM |  |  |  |  | 141 to 142 °C | 
COC(=O)[C@]1(C)CCC[C@]2(C)c3cc(Br)c4nc(-c5ccc(OC)cc5)[nH]c4c3CCC12 (some centres unmarked) [Compound 6i, Methyl 2′-(4-methoxyphenyl)-12-bromo-13,14-imidazolyl-deisopropyl-dehydroabietate] | > 50 µM | > 50 µM | 21.2 ± 2.23 µM | > 50 µM |  |  |  |  | 140 to 142 °C | 
COC(=O)[C@]1(C)CCC[C@]2(C)c3cc(Br)c4nc(-c5c[nH]c6ccccc56)[nH]c4c3CCC12 (some centres unmarked) [Compound 6k, Methyl 2′-(1H-indol-3-yl)-12-bromo-13,14-imidazolyl-deisopropyl-dehydroabietate] | 0.98 ± 0.11 µM |  |  | 0.56 ± 0.13 µM |  |  |  |  | 139 to 140 °C | 8.43 ± 1.06 µM
COC(=O)[C@]1(C)CCC[C@]2(C)c3cc(-c4cc(OC)c(OC)c(OC)c4)c4nc(-c5ccc(C)cc5)[nH]c4c3CCC12 (some centres unmarked) [Compound 7b, Methyl 2′-(p-tolyl)-12-(3,4,5-trimethoxyphenyl)-13,14-imidazolyl-deisopropyl-dehydroabietate] | > 50 µM | > 50 µM | 15.6 ± 1.57 µM | > 50 µM |  |  |  |  | 133 to 135 °C | 
COC(=O)[C@]1(C)CCC[C@]2(C)c3cc(-c4cc(OC)c(OC)c(OC)c4)c4nc(-c5ccccc5F)[nH]c4c3CCC12 (some centres unmarked) [Compound 7e, Methyl 2′-(2-fluorophenyl)-12-(3,4,5-trimethoxyphenyl)-13,14-imidazolyl-deisopropyl-dehydroabietate] | 18.3 ± 2.98 µM | > 50 µM | 10.4 ± 1.91 µM | 18.2 ± 1.32 µM |  |  |  |  | 155 to 157 °C | 
COC(=O)[C@]1(C)CCC[C@]2(C)c3cc(-c4cc(OC)c(OC)c(OC)c4)c4nc(-c5ccccc5Cl)[nH]c4c3CCC12 (some centres unmarked) [Compound 7g, Methyl 2′-(2-chlorophenyl)-12-(3,4,5-trimethoxyphenyl)-13,14-imidazolyl-deisopropyl-dehydroabietate] | > 50 µM | > 50 µM | 13.4 ± 2.35 µM | 15.7 ± 0.87 µM |  |  |  |  | 157 to 159 °C | 
COC(=O)[C@]1(C)CCC[C@]2(C)c3cc(-c4cc(OC)c(OC)c(OC)c4)c4nc(-c5ccc(OC)cc5)[nH]c4c3CCC12 (some centres unmarked) [Compound 7i, Methyl 2′-(4-methoxyphenyl)-12-(3,4,5-trimethoxyphenyl)-13,14-imidazolyl-deisopropyl-dehydroabietate] | > 50 µM | > 50 µM | 23.5 ± 2.38 µM | > 50 µM |  |  |  |  | 153 to 155 °C | 
COC(=O)[C@]1(C)CCC[C@]2(C)c3cc(-c4cc(OC)c(OC)c(OC)c4)c4nc(-c5ccc6[nH]ccc6c5)[nH]c4c3CCC12 (some centres unmarked) [Compound 7j, Methyl 2′-(1H-indol-5-yl)-12-(3,4,5-trimethoxyphenyl)-13,14-imidazolyl-deisopropyl-dehydroabietate] | 3.75 ± 0.78 µM |  |  | 0.83 ± 0.2 µM |  |  |  |  | 189 to 191 °C | 12.8 ± 1.27 µM
COC(=O)Nc1nc2ccc(C(=O)c3cccs3)cc2[nH]1 [Nocodazole, nocodazole, reference compound] | 0.87 ± 0.05 µM | 0.92 ± 0.07 µM | 1.37 ± 0.11 µM | 0.76 ± 0.06 µM |  |  |  |  |  | 13.8 ± 1.08 µM
